Results: patent US5411964A, “Phenylalanine-glycine compounds having anti-tumor activity, process for preparation thereof, and pharmaceutical composition containing said compounds” (Kureha Chemical Industry Co., Ltd., priority 1992, dated 1995)

Experiments:
Sarcoma-180 = test: Antitumor activity: inhibition of solid Sarcoma-180 tumor implanted subcutaneously in ICR mice; type: in vivo; details: day 22, i.p. 10 times every other day, mg/kg: 5-Fu 15, MP 10, 5-CAU 10, Phe+5-Fu 15+15, Phe+MP 15+10, Phe+5-CAU 15+10, Phe-5-Fu 30, Phe'-5-Fu 30, Phe-MP 20, Phe-5-CAU 20; for Average tumor weight ± SD: control 3.438 ± 1.481, in g (unit assumed)
Experimental: The concentration of the solid tumor cells (Sarcoma-180) was aseptically adjusted to 1×10^6 /0.2 ml with a medium [prepared by filtering 10% bovine fetal serum-added MEM (Eagles' Minimum Essential Medium) for sterilization, and stored at 4° C.] and subcutaneously implanted at the axillas of ICR mice (5 weeks old; females; one group consisting of 10 mice). From the next day, the samples (0.15% physiological saline solution) shown in Table 1 were administered intraperitoneally 10 times every other day. On the 22nd day, the tumors were excised and the inhibition rate (IR) was obtained from the weight of the tumors. The inhibition rate (IR) (%) was calculated by the following formula: […]
wherein T is the average tumor weight of the treated group, and C is the average tumor weight of the control group.

Wistar rats = test: Acute toxicity, oral forced administration to Wistar rats; type: in vivo; details: 250 mg/kg by forced administration, fasted male Wistar rats, observed until 14 days
Experimental: (1) The conditions in the feeding chamber were arranged to a temperature of 23°±1° C., a relative humidity of 55±5%, a ventilation frequency of 20 times per hour, and a lighting term of 12 hours. Wistar rats (male; five-week old;. 120 to 141 g) were used. The rats were placed in metallic cages having wire walls in the front and bottom thereof, at the rate of 5 rats per one cage. They were allowed food (MF: Oriental Yeast) and water ad libitum.
The conjugate (I-1) of the present invention obtained from Example 1(5) was suspended in a 1.5% methylcellulose aqueous solution. The suspension was administered by force. The amount of the administration was 1 ml per 100 g body weight of animals forced to fast for 18 hours, that is, 250 mg/kg was administered. Symptoms of addiction and survival were observed hourly up to 8 hours after the administration, then twice a day until 14 days after administration.

[1] = test system: pyruvate kinase M2-type isoenzyme; details: low concentration of L-phenylalanine; cited from earlier work

Row | SMILES | IR (inhibition rate from tumor weight) (Sarcoma-180) [%] | Average tumor weight ± SD (Sarcoma-180) | Survival / death after administration (Wistar rats) | inhibition of M2-type isoenzyme of pyruvate kinase (in words) [1]
1 | CCOC(=O)C(NC(=O)[C@@H](N)Cc1ccccc1)n1cc(F)c(=O)[nH]c1=O (mixture of isomers) [Phe'-5-Fu, L-phenylalanyl-2-(5-fluorouracil-1-yl)-D,L-glycineethylester] | 76.5 | 0.808 ± 0.389 | – | –
2 | O=c1[nH]cc(F)c(=O)[nH]1 [5-Fu, 5-fluorouracil, reference compound] | 57.3 | 1.467 ± 1.437 | – | –
3 | N[C@@H](Cc1ccc(N(CCCl)CCCl)cc1)C(=O)O [MP, Melphalan, reference compound] | 60.5 | 1.358 ± 1.369 | – | –
4 | N[C@@H](Cc1ccccc1)C(=O)NC(C(=O)O)n1cc(N(CCCl)CCCl)c(=O)[nH]c1=O (mixture of isomers) [Phe-5-CAU, L-phenylalanyl-2-[5-(bis(2-chloroethyl)amino)uracil-1-yl]-D,L-glycine] | 75.2 | 0.854 ± 0.664 | – | –
5 | N[C@@H](Cc1ccccc1)C(=O)NC(C(=O)O)n1cc(F)c(=O)[nH]c1=O (mixture of isomers) [Phe-5-Fu, L-phenylalanyl-2-(5-fluorouracil-1-yl)-D,L-glycine] | 77.6 | 0.770 ± 0.397 | No death was observed | –
6 | N[C@@H](Cc1ccccc1)C(=O)O [L-phenylalanine] | – | – | – | selectively inhibited
7 | CCOC(=O)C(NC(=O)[C@@H](N)Cc1ccccc1)N[C@@H](Cc1ccc(N(CCCl)CCCl)cc1)C(=O)OC (stereo partly drawn) [Phe-MP, L-phenylalanyl-2-[p-(bis(2-chloroethyl)amino)-L-phenylalaninemethylester-2-yl]-D,L-glycineethylester] | 72.6 | 0.943 ± 0.587 | – | –
8 | O=c1[nH]cc(N(CCCl)CCCl)c(=O)[nH]1 [5-CAU, 5-[bis(2-chloroethyl)amino]uracil, reference compound] | 54.2 | 1.574 ± 1.285 | – | –
